Measured values: PubChem BioAssay AID1963424 (Molecular Pharmacology Branch, DTP, NCI, 2024)

Test system: 327498-153-R-J2-PDC complex spheroid growth, % test/control
Assay: Anticancer human tumor 327498-153-R-J2-PDC patient-derived uterine carcinosarcoma cell line growth inhibition [Asc]
Settings: for IC50: curve of first compound; for viability, T/C: stronger effect = lower value
Method: Multicellular complex tumor spheroid response to apoptosis pathway targeting inhibitors Alrizomadlin, Pelcitoclax, and Dasminapant in combination with a variety of drugs and investigational agents in selected tumor cell lines
The MDM2 inhibitor alrizomadlin, the Bcl-2/Bcl-xL inhibitor pelcitoclax, and the IAPs inhibitor dasminapant were evaluated both individually and in combination with standard of care and investigational anticancer small molecules within a complex spheroid model of solid tumors. . Complex spheroids include a stromal component modeled by human endothelial cells (HUVEC) and fibroblasts modeled by human mesenchymal stem cells (MSCs). The concentration ranges selected for each drug and investigational agent were based upon clinically achievable concentrations if the clinical Cmax of the agent was known.
Compounds. The drugs and investigational agents: alrizomadlin (APG-115; NSC831270), pelcitoclax (APG-1252; NSC835773), dasminapant (APG-1387;NSC834197), TAK-243 (NSC785004), copanlisib (NSC809693), olaparib (NSC753686), talazoparib (NSC767125), cobimetinib (NSC 768068), eltanexor (KPT-8602, NSC 794443), abemaciclib (NSC 768073), sotorasib (NSC818433), adagrasib (NSC 831453), MRTX-1133 (NSC 836407), Iadademestat (ORY1001, NSC 806812), and RMC-4630 (NSC839698), were obtained from the NCI Developmental Therapeutics Program Chemical Repository. The FDA-approved anticancer drug set is available from the Developmental Therapeutics Program at https://dtp.cancer.gov/organization/dscb/obtaining/available plates.htm. […] The stock solutions were prepared in dimethyl sulfoxide (DMSO, Sigma-Aldrich, St. Louis, MO, cat. D2650) at 800-fold the tested concentration and stored at -70 degrees C prior to their use. All drugs and investigational agents were tested over a range starting from a high concentration at or near the clinical Cmax and decreasing in half-log increments. If the clinical Cmax for an agent had not been determined, the highest concentration tested was 10 microM.
The patient-derived cancer (PDC) cell lines include five colon adenocarcinomas: 186277-243-T-J2-PDC, 616215-338-R-J1-PDC, 439559-082-T-J2-PDC, 463943-066-T-J2-PDC, and 519858-162-T-J1-PDC; three pancreatic carcinomas: 323965-272-R-J2-PDC, 521955-158-R6-J3-PDC, and 521955-158-R2-J5-PDC; two uterine sarcomas: 327498-152-R-J2-PDC and 993429-296-R-J1-PDC; two rhabdomyosarcomas: 755483-174-R-J1-PDC and 772245-204-R-J1-PDC; two soft tissue sarcomas: 126254-015-R-J1-PDC and 494315-158-R-J1-PDC; two malignant fibrous histiocytomas: 317291-083-R-J1-PDC and 596521-263-R-J1-PDC; two breast carcinomas: 171881-019-R-J1-PDC and 885512-296-R-J2-PDC; and one ovarian carcinoma: 6556581-035-R-J-PDC were obtained from the NCI PDMR, (https://pdmr.cancer.gov). The established cell lines HSSY-2 synovial sarcoma (RRID:CVCL 8719), SYO-1 synovial sarcoma (RRID:CVCL_7146), MPNST malignant peripheral neural sheath tumor were obtained from the Sloan Kettering Institute. The following established cell lines were purchased from the American Type Culture Collection (ATCC, Manassas, VA), Sor the received from the NCI repository:, PANC-1 pancreatic carcinoma (CRL-1469, RRID:CVCL_0480), OVCAR-5 ovarian carcinoma (RRID:CVCL_1628), OVCAR-8 ovarian carcinoma (RRID:CVCL_1629), , MCF-7 breast carcinoma (CRL-12584, RRID:CVCL_0031), MDA-MB-231 breast carcinoma (CRL-12532, RRID:CVCL_0062), NCI-H1876 small cell lung carcinoma (CRL-5902, RRID:CVCL_1503), NCI-H510A small cell lung carcinoma (HTB-184, RRID:CVCL_1565), NCI-H1417 (CRL-5869, RRID:CVCL_1469), and NCI-H196 small cell lung carcinoma (CRL-5823, RRID:CVCL_1509). Dr. Peter Houghton (Greehey Children's Cancer Research Institute, University of Texas Health Science Center, San Antonio, TX) provided Rh-18 rhabdomyosarcoma (RRID:CVCL_1659). Pooled donor human umbilical vein endothelial cells (HUVEC, Lonza, cat. CC-2519) and human mesenchymal stem cells (hMSC, Lonza, cat. PT-2501) were purchased from Lonza (Walkersville, MD).
Cell Culture. […]
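Further: spheroids exposed to compound for 7 days after 3 days of growth.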
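Wherever viability, T/C is given: 100% = DMSO vehicle control wells.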

IC50 (second compound 0.03 µM): > 1000 nM
IC50 (second compound 0.0949 µM): 28.8 nM
IC50 (second compound 0.3 µM): < 3.16 nM
IC50 (second compound 0.949 µM): < 3.16 nM
IC50 (second compound 3 µM): < 3.16 nM
SMILES: CCN1CCN(Cc2ccc(Nc3ncc(F)c(-c4cc(F)c5nc(C)n(C(C)C)c5c4)n3)nc2)CC1 + CCN1C(C(=O)NC23CCC(C(=O)O)(CC2)CC3)C(c2cccc(Cl)c2F)C2(C(=O)Nc3cc(Cl)ccc32)C12CCCCC2
viability, T/C (second compound 0.03 µM, first compound 0.00316 µM): 86.8%
viability, T/C (second compound 0.03 µM, first compound 0.01 µM): 84.2%
viability, T/C (second compound 0.03 µM, first compound 0.0316 µM): 77.1%
viability, T/C (second compound 0.03 µM, first compound 0.1 µM): 52.4%
viability, T/C (second compound 0.03 µM, first compound 0.316 µM): 48.4%
viability, T/C (second compound 0.03 µM, first compound 1 µM): 53.3%
viability, T/C (second compound 0.0949 µM, first compound 0.00316 µM): 68%
viability, T/C (second compound 0.0949 µM, first compound 0.01 µM): 68.4%
viability, T/C (second compound 0.0949 µM, first compound 0.0316 µM): 48.3%
viability, T/C (second compound 0.0949 µM, first compound 0.1 µM): 31.7%
viability, T/C (second compound 0.0949 µM, first compound 0.316 µM): 39.8%
viability, T/C (second compound 0.0949 µM, first compound 1 µM): 39%
viability, T/C (second compound 0.3 µM, first compound 0.00316 µM): 34.3%
viability, T/C (second compound 0.3 µM, first compound 0.01 µM): 26.6%
viability, T/C (second compound 0.3 µM, first compound 0.0316 µM): 18.2%
viability, T/C (second compound 0.3 µM, first compound 0.1 µM): 15.4%
viability, T/C (second compound 0.3 µM, first compound 0.316 µM): 17.9%
viability, T/C (second compound 0.3 µM, first compound 1 µM): 21.3%
viability, T/C (second compound 0.949 µM, first compound 0.00316 µM): 9.27%
viability, T/C (second compound 0.949 µM, first compound 0.01 µM): 8.09%
viability, T/C (second compound 0.949 µM, first compound 0.0316 µM): 6.59%
viability, T/C (second compound 0.949 µM, first compound 0.1 µM): 7.13%
viability, T/C (second compound 0.949 µM, first compound 0.316 µM): 8.2%
viability, T/C (second compound 0.949 µM, first compound 1 µM): 11.3%
viability, T/C (second compound 3 µM, first compound 0.00316 µM): 3.59%
viability, T/C (second compound 3 µM, first compound 0.01 µM): 3.67%
viability, T/C (second compound 3 µM, first compound 0.0316 µM): 2.51%
viability, T/C (second compound 3 µM, first compound 0.1 µM): 3.55%
viability, T/C (second compound 3 µM, first compound 0.316 µM): 4.83%
viability, T/C (second compound 3 µM, first compound 1 µM): 8.39%
